Laboratory results as given in patent publication US12708611B2, “Diagnostic and drug screening for molecular signatures of early onset sporadic parkinson's disease” (CEDARS-SINAI MEDICAL CENTER, priority 2018, dated 2026).
Entries after “also recorded” stand apart in the source; their conditions may differ. Where a SMILES comes first, the peptide text is derived from it. The star is where a group is joined. Cbz = O=C(OCc1ccccc1)*

What was measured:
P53 = experiment: Proteasome inhibition of DaN cultures, P53 western blot; type: cell-based, human; conditions: DaN cultures treated 24 hrs
Text: (§1) Protein degradation can be largely divided into protosomal and autophagy/lysosomal degradation pathways.

α-Synuclein [1] = experiment: Proteasome inhibition of DaN cultures, α-Synuclein western blot; type: cell-based, human; conditions: DaN cultures treated 24 hrs
Text: as §1

[2] = tested on: various cancer cell lines and primary acute myeloid leukaemia (AML) cells; conditions: cited from earlier work
DaN cultures = experiment: LDH on drug treatment of DaN cultures (cell death); type: cell-based, human
Text: (§2) It is likely that the toxicity of PEP is more specific to highly proliferative cells whereas our differentiated neurons are largely post mitotoic.

TH [3] = experiment: Injection into ventricles of WT mice, TH in striatum; type: in vivo, mouse; conditions: WT mice, 0.3, 3, and 30 uM injected into ventricles, 1 and 5 days post injection
Method: (§3) In vivo, PEP stimulates synuclein degradation. Dosage studies of 0.3, 3, and 30 uM PEP was injected into the ventricles of WT mice.

TH [4] = experiment: TH gene expression along time-course of PEP treatment; type: cell-based, human; conditions: paired time-course samples
Text: (§4) The elevated phosphorylation of PKCa was absent in the undifferentiated iPSCs and no clear pattern was evident in peripheral blood from the individual patients indicating specificity to the differentiated DaNs.

[5] = PKC delta signal in DaN cultures on drug treatment; type: cell-based, human
Text: as §2

cleaved caspase 3 (CC3) = experiment: Cleaved caspase 3 in time-course of PEP treatment of DaNs; type: cell-based, human; conditions: PD cells, on drug treatment; listed as PEP
Text: as §4, §2

p-PKCa = experiment: Western blot of phosphorylated PKC alpha in treated DaNs; type: cell-based, human
Text: as §4

PKC C1 domains = conditions: cited from earlier work
LAMP1 = experiment: Western blot of LAMP1 in PEP-treated DaNs; type: cell-based, human; conditions: for LAMP1 response to treatment: PD cells
Text: as §4
PEP is described as both an activator of the pro-apoptotic […] and an inhibitor of PKCα.

SNCA = SNCA gene expression along time-course of PEP treatment; type: cell-based, human; conditions: paired time-course samples
Text: as §4

LC3 = experiment: Western blot of LC3 in PEP-treated DaNs; type: cell-based, human; conditions: PD cells
Text: as §4

α-Synuclein [6] = experiment: Western blot of α-Synuclein in iPSC-derived DaNs treated with lysosomal agonists; type: cell-based, human; conditions: for amount of α-Synuclein protein: DaNs from control lines
Method: (§5) To test if the Inventors could reduce synuclein levels in our EOSPD DANs through activation of lysosomal specific pathways, the Inventors selected 3 lysosomal agonists. […] Starting at day 27, DaNs were treated for 3 days with the above lysosomal agonists.
as §4

synuclein = experiment: Injection into ventricles of WT mice, synuclein in striatum; type: in vivo, mouse; conditions: WT mice, 0.3, 3, and 30 uM injected into ventricles, 1 and 5 days post injection
Method: as §3

TH enzyme = experiment: Western blot of TH enzyme in treated DaNs; type: cell-based, human; conditions: both control and PD DaNs
Method: as §5

PC12 cell model = conditions: cited from earlier work
[7] = time-course, control and PD DaNs
[8] = treated 3 days starting at day 27

CC(C)C[C@@H](C=O)NC(=O)[C@H](CC(C)C)NC(=O)[C@H](CC(C)C)NC(=O)OCc1ccccc1 [MG132] (Cbz-Leu-Leu-Leu-aldehyde)
P53 level (P53): accumulation of P53 | α-Synuclein levels (α-Synuclein [1]): no substantial change

C/C=C(/C)C(=O)O[C@H]1C(C)=C[C@]23C(=O)[C@@H](C=C(CO)[C@@H](O)[C@]12O)[C@H]1[C@@H](C[C@H]3C)C1(C)C [PEP005, ingenol-3-angelate]
apoptosis ([2]; leukemic cell lines and primary AML cells): induces apoptosis | proliferation ([2]; various cancer cell lines and primary AML cells): inhibiting proliferation | LDH on drug treatment (DaN cultures): nor do the Inventors see an increase in LDH | TH in mouse striatum (TH [3]): increase in TH | time after initial exposure at which TH is upregulated (TH [4]): roughly 8 hours | PKC6 signal [5]: did not observe a strong PKC6 signal | cleaved caspase 3 (CC3) present (cleaved caspase 3 (CC3)): marked decrease; also recorded: decrease in the amount of active caspase 3 | PKC alpha phosphorylation signal (p-PKCa; control and PD DaNs, at endpoint): completely ablating this signal | elevated phosphorylation of PKCa (p-PKCa; luM PEP005 for 3 days, DaNs from all iPSC lines): clearly ablated | time until p-PKCa is degraded in response to drug treatment (p-PKCa; [7]): ≤ 24 h | affinity for PKC C1 domains (PKC C1 domains): subnanomolar affinity | selectivity for individual PKC isoforms (PKC C1 domains; in vitro): no selectivity | LAMP1 response to treatment (LAMP1): does not appear to be replicated | LAMP1 response to treatment (LAMP1; listed as PEP): neither LAMP1 nor LC3 respond | lysosomal protein LAMP1 (LAMP1; control cells): increase | time after treatment at which SNCA is downregulated (SNCA): 4 h | LC3 response to treatment (LC3): neither LAMP1 nor LC3 respond | amount of α-Synuclein protein (α-Synuclein [6]; [8]): significantly reduced | synuclein levels (α-Synuclein [6]; ESOPD DaNs, treated 3 days starting at day 27): substantially reduced | α-Synuclein levels (α-Synuclein [6]; both control and PD DaNs): reduced | synuclein (α-Synuclein [6]; luM PEP005 for 3 days, all treated lines): reduced synuclein | time until α-Synuclein is degraded in response to drug treatment (α-Synuclein [6]; [7]): ≤ 24 h | synuclein in mouse striatum (synuclein): Reduction of synuclein | amount of TH enzyme present (TH enzyme): increased amount of TH enzyme present | amount of TH enzyme present (TH enzyme; listed as PEP): increase in the amount of TH

C=CCNc1ncnc2ccc(Br)cc12 [SMER28]
Huntington and α-Synuclein aggregates (PC12 cell model): reduce Huntington and α-Synuclein aggregates | amount of α-Synuclein protein (α-Synuclein [6]; [8]): significantly reduced

OC[C@H]1O[C@H](O[C@H]2O[C@H](CO)[C@@H](O)[C@H](O)[C@H]2O)[C@H](O)[C@@H](O)[C@@H]1O [Trehalose]
amount of α-Synuclein protein (α-Synuclein [6]; [8]): not Trehalose significantly reduced
